In data set [1] the test system is amine transaminases AfATA, GzATA, NfATA, AoATA, AtATA, MvATA, SpATA. The format is biochemical.
For data set [2] the following is noted: donor amine salt.
Data set [3] in a line: Stability of salt solutions observed in the screening. The class given is physicochemical. As to conditions: certain salt solutions; strong discoloration. From the text:
The results of table 3 show clearly that certain acids allow significant differences in solubility between investigated salts. In this screening especially differences between product amines and the commonly used donor amines isopropylamine/alanine were targeted. Based on this consideration the following acids appear most applicable: 34CA, 34NA, 43CNA and 3DPPA. In addition, 2DPPA was identified as suitable acid. Acids with less strong differences are PCPA, 24CNA, 25CNA, 35DNOT, 3NA and 435CNBA, which might be useful for other product amines.

Read-outs that look alike come from different tables or passages of the source.

On to `O=C(O)CC(c1ccccc1)c1ccccc1` [Compound 3DPPA, 3,3-diphenylpropionic acid], for which, in data set [1], the “inhibition of amine transaminases” value is “does not significantly inhibit”.

On to `CC(C)N.O=C(O)c1ccc(Cl)c([N+](=O)[O-])c1` [Compound 5, isopropylamine salt of 4-chloro-3-nitrobenzoic acid (43CNA)], for which the solubility in data set [2] came out at 993.

For the compound `O=C(O)c1ccc(Cl)c([N+](=O)[O-])c1` [Compound 43CNA, 4-chloro-3-nitro-benzoic acid], the “inhibition of amine transaminases” value in data set [1] (pH 7.5) is “strongly inhibited”.

`O=C(O)C(c1ccccc1)c1ccccc1` [DPAA, diphenylacetic acid]: the “inhibition of amine transaminases” value in data set [1] (pH 7.5) was “strongly inhibited”.

Regarding `O=C(O)C1(c2ccccc2)CCCC1` [PCPA, 1-Phenylcyclo-pentane-carboxylic acid], the “stability of salt solutions” value in data set [3] is given as “unknown decomposition reaction”.

(Values after patent publication US12018303B2, “Method for preparing amines from carbonyl compounds by transaminase reaction under salt precipitation” (ENZYMICALS AG, priority 2017, dated 2024).)
